# Reference: PubChem BioAssay (NCI)
#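 96-well plates; 48 h exposure; 5 concentrations. Endpoints by linear interpolation between flanking doses. Not reached: highest tested concentration assigned. At the GI50, growth is halved. TGI marks complete inhibition of growth.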
# Tested on: HCT-116 colon
# Assay: growth of human tumour cells (NCI), 48 h
SMILES,GI50 [nM],TGI [nM]
Cc1cc(N[C@@H]2CCC[C@H](Nc3ccnc4cc(Cl)ccc34)C2)nc(N2CCCCCC2)n1,1050,2360

# Tested on: MDA-MB-435
# Assay: growth of human tumour cells (NCI), 48 h
SMILES,TGI [µM],GI50 [nM]
COc1cc2c(cc1OC)C1C3CCCCC3CCN1CC2 (stereo unspecified),> 100,
NC(=O)c1c(NC(=O)c2ccccc2)sc2c1CCC(=O)C2,10.5,3090
COc1cc(O)c2c(c1)C(=O)c1cc3c(c(O)c1C2=O)C(OC1OC(C)C(OC)C(O)C1OC)C(OC)C(C)(O)C3=O (stereo unspecified),16.1,
Cc1cc(N[C@@H]2CCC[C@H](Nc3ccnc4cc(Cl)ccc34)C2)nc(N2CCCCCC2)n1,3.33,1790

# Tested on: LOX IMVI melanoma
# Assay: growth of human tumour cells (NCI), 48 h
SMILES,TGI [µM],GI50 [nM]
COc1cc2c(cc1OC)C1C3CCCCC3CCN1CC2 (stereo unspecified),> 100,
NC(=O)c1c(NC(=O)c2ccccc2)sc2c1CCC(=O)C2,19.5,1150
COc1cc(O)c2c(c1)C(=O)c1cc3c(c(O)c1C2=O)C(OC1OC(C)C(OC)C(O)C1OC)C(OC)C(C)(O)C3=O (stereo unspecified),12.4,
COc1cnc2c(c1)C(=O)c1c-2n(CCCN2CCOCC2)c(=O)c2cc(Cl)ccc12,0.532,152
Cc1cc(N[C@@H]2CCC[C@H](Nc3ccnc4cc(Cl)ccc34)C2)nc(N2CCCCCC2)n1,2.96,1430

# Tested on: NCI-H226 lung
# Assay: growth of human tumour cells (NCI), 48 h
SMILES,TGI [µM],GI50 [nM]
COc1cc2c(cc1OC)C1C3CCCCC3CCN1CC2 (stereo unspecified),> 100,
NC(=O)c1c(NC(=O)c2ccccc2)sc2c1CCC(=O)C2,9.1,2200
COc1cc(O)c2c(c1)C(=O)c1cc3c(c(O)c1C2=O)C(OC1OC(C)C(OC)C(O)C1OC)C(OC)C(C)(O)C3=O (stereo unspecified),9.54,
COc1cnc2c(c1)C(=O)c1c-2n(CCCN2CCOCC2)c(=O)c2cc(Cl)ccc12,> 100,396
Cc1cc(N[C@@H]2CCC[C@H](Nc3ccnc4cc(Cl)ccc34)C2)nc(N2CCCCCC2)n1,6.06,2420

# Tested on: MCF7 breast
# Assay: growth of human tumour cells (NCI), 48 h
SMILES,TGI [µM],GI50 [nM]
COc1cc2c(cc1OC)C1C3CCCCC3CCN1CC2 (stereo unspecified),> 100,
NC(=O)c1c(NC(=O)c2ccccc2)sc2c1CCC(=O)C2,9.02,1820
COc1cc(O)c2c(c1)C(=O)c1cc3c(c(O)c1C2=O)C(OC1OC(C)C(OC)C(O)C1OC)C(OC)C(C)(O)C3=O (stereo unspecified),17.1,
COc1cnc2c(c1)C(=O)c1c-2n(CCCN2CCOCC2)c(=O)c2cc(Cl)ccc12,> 100,95.9
Cc1cc(N[C@@H]2CCC[C@H](Nc3ccnc4cc(Cl)ccc34)C2)nc(N2CCCCCC2)n1,3.03,1430

# Tested on: SNB-19 CNS
# Assay: growth of human tumour cells (NCI), 48 h
SMILES,TGI [µM],GI50 [nM]
COc1cc2c(cc1OC)C1C3CCCCC3CCN1CC2 (stereo unspecified),> 100,
NC(=O)c1c(NC(=O)c2ccccc2)sc2c1CCC(=O)C2,> 100,3290
COc1cc(O)c2c(c1)C(=O)c1cc3c(c(O)c1C2=O)C(OC1OC(C)C(OC)C(O)C1OC)C(OC)C(C)(O)C3=O (stereo unspecified),23.3,
COc1cnc2c(c1)C(=O)c1c-2n(CCCN2CCOCC2)c(=O)c2cc(Cl)ccc12,> 100,310
Cc1cc(N[C@@H]2CCC[C@H](Nc3ccnc4cc(Cl)ccc34)C2)nc(N2CCCCCC2)n1,8.08,2560

# Tested on: TK-10 renal
# Assay: growth of human tumour cells (NCI), 48 h
SMILES,TGI [µM],GI50 [µM]
COc1cc2c(cc1OC)C1C3CCCCC3CCN1CC2 (stereo unspecified),> 100,
NC(=O)c1c(NC(=O)c2ccccc2)sc2c1CCC(=O)C2,> 100,6.91
COc1cc(O)c2c(c1)C(=O)c1cc3c(c(O)c1C2=O)C(OC1OC(C)C(OC)C(O)C1OC)C(OC)C(C)(O)C3=O (stereo unspecified),23.7,
COc1cnc2c(c1)C(=O)c1c-2n(CCCN2CCOCC2)c(=O)c2cc(Cl)ccc12,> 100,> 100
Cc1cc(N[C@@H]2CCC[C@H](Nc3ccnc4cc(Cl)ccc34)C2)nc(N2CCCCCC2)n1,3.52,1.73

# Tested on: PC-3 prostate
# Assay: growth of human tumour cells (NCI), 48 h
SMILES,TGI [µM],GI50 [nM]
COc1cc2c(cc1OC)C1C3CCCCC3CCN1CC2 (stereo unspecified),> 100,
NC(=O)c1c(NC(=O)c2ccccc2)sc2c1CCC(=O)C2,17.6,319
